# According to article PMC6323635 (Journal of natural products, 2016):
# “Also recorded” adds a separate entry of the source. Where two headings read alike, the source gives them in different places.
# Tests used:
# [1] = tested on: tumor growth in xenograft models; details: cited from earlier work
# [2] = tested on: DNA topoisomerase II; details: cited from earlier work
# [3] = tested on: HIF-1α transcriptional activity in COLO 205 cells; assay: HIF reporter assay; assay type: cell-based, human
# [4] = tested on: COLO 205 cells; assay: CCK-8 cytotoxicity assay under hypoxic conditions; assay type: cell-based; details: for Cell death in COLO 205 cells: up to concentrations of 10 μM, hypoxia; for IC50: read-out: IC50 value (μM) ± SEM, COLO 205 (48 h, 0.5% O2), COLO 205, 48 h, 0.5% O2, CCK-8
# [5] = biological target: HIF-1α/p300 (Homo sapiens, UniProt Q09472); assay: HIF-1α/p300 screening assay; assay type: binding
# HIF-1α/p300, sequence (Q09472 331-417 limits assumed): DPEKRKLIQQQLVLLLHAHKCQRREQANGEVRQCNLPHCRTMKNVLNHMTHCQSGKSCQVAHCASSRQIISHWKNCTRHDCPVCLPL
# [6] = tested on: VEGF secretion in HCT 116 cells; assay: VEGF ELISA; assay type: cell-based, human; details: for Hypoxia-induced VEGF secretion in HCT 116 cells: 48 h, 0.5% O2, concentrations active in HIF reporter assay
# [7] = tested on: HIF-1α transcriptional activity in HCT 116 cells; assay: HIF reporter assay; assay type: cell-based
# [8] = tested on: HCT 116 cells; details: cited from earlier work
# [9] = tested on: VEGF secretion in LNCaP cells; assay: VEGF ELISA; assay type: cell-based, human; details: 18 h, 1% O2
# [10] = tested on: ENO1, VEGF, and LDHA mRNA expression in PC3 prostate cancer cells; details: cited from earlier work
# [11] = tested on: HCT 116 cells; details: cited from earlier work; remark: listed apart in the source
# [12] = tested on: HCT 116 cells; assay: CCK-8 cytotoxicity assay under hypoxic conditions; assay type: cell-based, human; details: 0.5% O2, CCK-8
# [13] = tested on: LNCaP cells; assay: CCK-8 cytotoxicity assay under hypoxic conditions; assay type: cell-based, human; details: read-out: IC50 value (μM) ± SEM, LNCaP (18 h, 1% O2), 1% O2, CCK-8
# [14] = tested on: HIF-1α transcriptional activity in LNCaP cells; assay: HIF reporter assay; assay type: cell-based, human
# [15] = read-out: IC50 value (μM) ± SEM, HCT 116 (18 h, 0.5% O2), HCT 116, 18 h
# [16] = read-out: IC50 value (μM) ± SD, HIF-1α/p300 screening assay, cell-free assay, ± SD
compound,measurement,setting,value
"O=C1CC2SC3CC2(C=C1Br)C1=C(N3)C(=O)c2[nH]cc3c2C1=NCC3 (single isomer, unassigned; (+)) [compound 6, (+)-discorhabdin A]",Tumor growth in xenograft models,[1],did not reduce tumor growth
"O=C1C(NC2Cc3cc(Br)c(O)cc3S2)=CC2=NCCc3c[nH]c1c32 (single isomer, unassigned; (-)) [compound 5, (−)-makaluvamine F]",Inhibition of DNA topoisomerase II,[2],inhibit DNA topoisomerase II
same,"Concentrations causing significant inhibition of luciferase activity, COLO 205","[3]; p < 0.05, 18 h, 0.5% O2",no effect
same,Cell death in COLO 205 cells,[4],did not cause substantial cell death
"CN1C(=O)[C@]2(Cc3cn([C@]45C[C@@]67SS[C@@](CO)(C(=O)N6[C@H]4Nc4ccccc45)N(C)C7=O)c4ccccc34)SS[C@@]1(CO)C(=O)N2C [chetomin, reference compound]",IC50,[5],1.9 ± 0.5 µM
"O=C1C=C2S[C@H]3C[C@]2(C=C1Br)C1=C(N3)C(=O)c2[nH]cc3c2C1=NCC3 [compound 1, (+)-discorhabdin B]","Concentrations causing significant inhibition of luciferase activity, COLO 205","[3]; p < 0.05, 18 h, 0.5% O2",no effect
same,Tumor growth in xenograft models,[1],did not reduce tumor growth
"O=C1C=C(S[C@H]2[C@H]3C(=O)C=C4S[C@H]5C[C@]42C2=C(N5)C(=O)c4[nH]cc5c4C2=[N+]3CC5)[C@]2(C=C1Br)CCNC1=C2C2=NCCc3c[nH]c(c32)C1=O [compound 2, (−)-discorhabdin B dimer]",Trend in VEGF secretion in HCT 116 cells,"[6]; 0.1–0.25 μM, 18 h and 48 h",statistically nonsignificant trend in the decrease
same,Hypoxia-induced VEGF secretion in HCT 116 cells,[6],none of these compounds significantly reduced
same,"Concentrations causing significant inhibition of luciferase activity, COLO 205","[3]; p < 0.05, 18 h, 0.5% O2",no effect
same,Effect on HIF-1α transcriptional (reporter) activity in HCT 116 cells,"[7]; in words, 18 h, 0.5% O2",most potent at decreasing reporter activity
same,Cell death in COLO 205 cells,[4],did not cause substantial cell death
"O=C1C2=C(C3=NCCc4c[nH]c1c43)[C@]1(C=C(Br)[C@H](O)C(Br)=C1)CCN2 [compound 3, 3-dihydrodiscorhabdin C]","IC50 values, cytotoxicity in HCT 116 cells",[8],lower micromolar range
same,"Concentrations causing significant inhibition of luciferase activity, COLO 205","[3]; p < 0.05, 18 h, 0.5% O2",no effect
"O=C1C2=C3C4=[N+](CCc5c[nH]c1c54)[C@H]1C[C@@]34C[C@@H](N2)SC4=CC1=O [compound 7, (−)-discorhabdin D]",Antitumor activity in vivo,[1],the only reported discorhabdin with such activity
"O=C1C2=C3C4=[N+](CCc5c[nH]c1c54)[C@@H]1C(=O)C=C4S[C@@H](C[C@@]43[C@H]1O)N2 [compound 9, (−)-discorhabdin L]",Hypoxia-induced VEGF secretion in HCT 116 cells,[6],none of these compounds significantly reduced
same,VEGF concentrations in LNCaP cells,[9]; 0.25–1 μM,borderline significant decrease
same,"Concentrations causing significant inhibition of luciferase activity, COLO 205","[3]; p < 0.05, 18 h, 0.5% O2",no effect
CN1C(=O)[C@]23CC4=CC=C[C@H](O)[C@H]4N2C(=O)[C@@]1(CO)SS3 [gliotoxin],"ENO1, VEGF, and LDHA mRNA expression in PC3 prostate cancer cells",[10],lowered
same,Effects on HIF target mRNA expression in HCT 116 cells,[11],no effects
(+)-discorhabdin G*/I [compound 4],"IC50 values, cytotoxicity in HCT 116 cells",[8],lower micromolar range
(−)-discorhabdin H [compound 8],Hypoxia-induced VEGF secretion in HCT 116 cells,[6],none of these compounds significantly reduced
same,IC50,[12]; [15],> 10 µM
same,IC50,"[12]; read-out: IC50 value (μM) ± SEM, HCT 116 (48 h, 0.5% O2), HCT 116, 48 h",> 50 µM
same,VEGF secretion in LNCaP cells,[9]; 0.5 μM,significant decrease; also recorded: significantly decreased
same,IC50,[13],> 10 µM
same,"Concentrations causing significant inhibition of luciferase activity, COLO 205","[3]; p < 0.05, 18 h, 0.5% O2",no effect
same,IC50,[4],> 10 µM
same,Cell death in COLO 205 cells,[4],did not cause substantial cell death
same,"Concentrations causing significant inhibition of luciferase activity, LNCaP","[14]; p < 0.05, 18 h, 1% O2, superscript a = >50% cell death in CCK-8 assay",0.1 µM
same,IC50,[5]; [16],2.2 ± 0.6 µM
(−)-discorhabdin W [compound 11],IC50,[12]; [15],> 10 µM
same,IC50,[13],> 10 µM
same,"Concentrations causing significant inhibition of luciferase activity, COLO 205",[3],no effect
same,Effect on HIF-1α transcriptional (reporter) activity in HCT 116 cells,[7],reduced HIF reporter activity
same,IC50,[4],> 10 µM
same,Cell death in COLO 205 cells,[4],did not cause substantial cell death
same,Activity in HIF reporter assay in LNCaP cells,[14],did not show activity
same,"Concentrations causing significant inhibition of luciferase activity, LNCaP",[14],no effect
same,Activity in the screening assay,[5]; in words,no activity
same,IC50,[5]; [16],> 100 µM
